In ChEMBL document CHEMBL5257101, “Synthesis and evaluation of sulfonamide derivatives targeting EGFR790M/L858R mutations and ALK rearrangement as anticancer agents” (Bioorg Med Chem, 2023):
Calls of active or inactive are those of the source. The calls are words filed in the database; no cut-off is given here.

What was measured:
NCI-H1975 [1] = assay: Antiproliferative activity against human NCI-H1975 cells expressing EGFR T790M/ L858R double mutant assessed as inhibition of cell growth measured after 48 to 72 hrs by MTT assay; format: functional, cell-based
NCI-H2228 [2] = assay: Antiproliferative activity against human NCI-H2228 cells expressing ALK assessed as inhibition of cell growth measured after 48 to 72 hrs by MTT assay; format: functional, cell-based
A549 = assay: Antiproliferative activity against human A549 cells expressing wild type EGFR assessed as inhibition of cell growth measured after 48 to 72 hrs by MTT assay; format: functional, cell-based
PC-9 = assay: Antiproliferative activity against human PC-9 cells expressing EGFR Del19 mutant assessed as inhibition of cell growth measured after 48 to 72 hrs by MTT assay; format: functional, cell-based
[3] = Cytotoxicity against human EA.hy 926 cells assessed as inhibition of cell growth measured after 48 to 72 hrs by MTT assay; format: toxicity, cell-based
[4] = Cytotoxicity against human HK-2 cells assessed as inhibition of cell growth measured after 48 to 72 hrs by MTT assay; format: toxicity, cell-based
HK-2 = assay: Effect on cell morphology in human HK-2 cells at 1 uM incubated for 24 hrs by inverted microscopic analysis; format: functional, cell-based
[5] = Selectivity ratio, ratio of IC50 for human NCI-H2228 cells expressing ALK to IC50 for human EA.hy 926 cells by MTT assay
[6] = Selectivity ratio, ratio of IC50 for human NCI-H2228 cells expressing ALK to IC50 for human HK-2 cells by MTT assay
[7] = biological target: ALK tyrosine kinase receptor (Homo sapiens, UniProt Q9UM73); assay: Inhibition of ALK (unknown origin) pre-incubated for 10 mins followed by substrate addition measured after 60 mins in presence of ATP by mobility shifting assay
[8] = Selectivity ratio, ratio of IC50 for human A549 cells expressing wild type EGFR to IC50 for human NCI-H1975 cells expressing EGFR T790M/ L858R double mutant by MTT assay
[9] = biological target: Epidermal growth factor receptor (Homo sapiens, UniProt P00533, L858R/T790M); assay: Inhibition of EGFR L858R/T790M double mutant (unknown origin) pre-incubated for 10 mins followed by substrate addition measured after 60 mins in presence of ATP by mobility shifting assay
Epidermal growth factor receptor (Homo sapiens, UniProt P00533, L858R/T790M), sequence (P00533 25-1210 T790M/L858R limits assumed): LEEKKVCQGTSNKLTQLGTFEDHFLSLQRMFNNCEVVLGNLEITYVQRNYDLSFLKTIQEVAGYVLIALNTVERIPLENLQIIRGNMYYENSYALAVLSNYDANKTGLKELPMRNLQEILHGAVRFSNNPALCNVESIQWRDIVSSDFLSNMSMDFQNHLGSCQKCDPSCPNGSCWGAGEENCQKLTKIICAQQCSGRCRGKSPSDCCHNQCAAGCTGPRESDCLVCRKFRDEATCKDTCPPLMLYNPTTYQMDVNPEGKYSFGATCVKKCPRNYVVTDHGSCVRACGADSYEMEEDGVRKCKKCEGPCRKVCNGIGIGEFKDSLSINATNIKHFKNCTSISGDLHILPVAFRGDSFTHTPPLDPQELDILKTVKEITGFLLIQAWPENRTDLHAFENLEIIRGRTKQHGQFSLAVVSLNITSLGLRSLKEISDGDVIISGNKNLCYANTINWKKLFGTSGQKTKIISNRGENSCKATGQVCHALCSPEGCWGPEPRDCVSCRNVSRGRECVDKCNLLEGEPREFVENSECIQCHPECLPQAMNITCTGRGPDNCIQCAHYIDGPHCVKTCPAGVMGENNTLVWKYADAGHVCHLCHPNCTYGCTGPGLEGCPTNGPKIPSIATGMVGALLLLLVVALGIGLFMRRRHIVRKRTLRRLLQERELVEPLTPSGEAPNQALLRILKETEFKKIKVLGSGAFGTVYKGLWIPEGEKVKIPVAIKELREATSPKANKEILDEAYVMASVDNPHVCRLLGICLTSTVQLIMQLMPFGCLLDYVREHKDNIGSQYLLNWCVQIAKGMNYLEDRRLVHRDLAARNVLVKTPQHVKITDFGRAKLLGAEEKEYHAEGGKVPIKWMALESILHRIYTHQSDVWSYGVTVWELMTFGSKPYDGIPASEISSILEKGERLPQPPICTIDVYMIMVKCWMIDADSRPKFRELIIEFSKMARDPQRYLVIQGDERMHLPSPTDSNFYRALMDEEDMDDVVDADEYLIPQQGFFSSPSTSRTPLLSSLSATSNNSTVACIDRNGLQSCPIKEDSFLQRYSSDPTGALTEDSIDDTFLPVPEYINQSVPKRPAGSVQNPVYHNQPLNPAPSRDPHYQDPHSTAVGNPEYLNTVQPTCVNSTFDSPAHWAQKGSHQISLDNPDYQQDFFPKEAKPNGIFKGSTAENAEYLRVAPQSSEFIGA

[10] = biological target: Epidermal growth factor receptor (Homo sapiens, UniProt P00533); assay: Inhibition of wild type EGFR (unknown origin) pre-incubated for 10 mins followed by substrate addition measured after 60 mins in presence of ATP by mobility shifting assay
Epidermal growth factor receptor (Homo sapiens, UniProt P00533), sequence (P00533 whole entry): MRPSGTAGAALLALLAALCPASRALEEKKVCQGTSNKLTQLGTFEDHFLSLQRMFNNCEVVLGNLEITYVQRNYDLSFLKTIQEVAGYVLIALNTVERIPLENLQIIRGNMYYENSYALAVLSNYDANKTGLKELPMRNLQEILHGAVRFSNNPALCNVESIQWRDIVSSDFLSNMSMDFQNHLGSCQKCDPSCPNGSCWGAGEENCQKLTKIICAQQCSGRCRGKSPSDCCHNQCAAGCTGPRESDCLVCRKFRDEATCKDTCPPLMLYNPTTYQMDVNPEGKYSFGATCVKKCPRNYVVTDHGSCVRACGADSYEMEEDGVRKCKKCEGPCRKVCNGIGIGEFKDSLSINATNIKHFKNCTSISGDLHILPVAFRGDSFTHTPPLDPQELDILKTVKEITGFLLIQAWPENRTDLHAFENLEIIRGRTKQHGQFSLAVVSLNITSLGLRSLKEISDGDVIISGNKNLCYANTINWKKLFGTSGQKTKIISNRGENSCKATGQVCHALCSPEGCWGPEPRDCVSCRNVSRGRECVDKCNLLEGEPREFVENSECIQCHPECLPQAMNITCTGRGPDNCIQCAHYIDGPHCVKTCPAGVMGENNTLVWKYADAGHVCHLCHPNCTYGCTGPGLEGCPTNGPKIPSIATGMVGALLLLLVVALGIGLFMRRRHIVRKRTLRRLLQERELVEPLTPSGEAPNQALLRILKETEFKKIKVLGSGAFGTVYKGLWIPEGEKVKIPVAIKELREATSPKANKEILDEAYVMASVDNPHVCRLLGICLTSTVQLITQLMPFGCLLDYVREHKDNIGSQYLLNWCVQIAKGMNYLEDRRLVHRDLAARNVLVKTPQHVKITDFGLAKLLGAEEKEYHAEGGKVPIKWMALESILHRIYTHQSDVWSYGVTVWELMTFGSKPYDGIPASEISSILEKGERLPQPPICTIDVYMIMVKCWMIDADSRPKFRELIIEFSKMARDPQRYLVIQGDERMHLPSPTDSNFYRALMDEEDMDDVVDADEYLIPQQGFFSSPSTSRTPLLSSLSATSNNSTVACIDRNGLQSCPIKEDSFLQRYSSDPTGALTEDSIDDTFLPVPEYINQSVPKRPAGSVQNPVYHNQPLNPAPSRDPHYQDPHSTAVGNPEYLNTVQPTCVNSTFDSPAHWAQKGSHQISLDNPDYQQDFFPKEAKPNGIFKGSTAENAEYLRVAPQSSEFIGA

[11] = biological target: Epidermal growth factor receptor (Homo sapiens, UniProt P00533, EX19DEL); assay: Inhibition of EGFR Del19 mutant (unknown origin) pre-incubated for 10 mins followed by substrate addition measured after 60 mins in presence of ATP by mobility shifting assay
Epidermal growth factor receptor (Homo sapiens, UniProt P00533, EX19DEL), sequence (P00533 whole entry, looked up, stated change not applied): as the sequence (P00533 whole entry) above

Homo sapiens [12] = species: Homo sapiens; assay: Selectivity ratio, ratio of IC50 for wild type EGFR (unknown origin) to IC50 for EGFR L858R/T790M double mutant (unknown origin) by mobility shifting assay
Homo sapiens [13] = species: Homo sapiens; assay: Selectivity ratio, ratio of IC50 for wild type EGFR (unknown origin) to IC50 for EGFR Del19 mutant (unknown origin) by mobility shifting assay
[14] = Selectivity ratio, ratio of IC50 for human A549 cells expressing wild type EGFR to IC50 for human PC-9 cells expressing EGFR Del19 mutant by MTT assay
NCI-H1975 [15] = assay: Effect on cell morphology in human NCI-H1975 cells assessed as appearance of blurred boundary region at 1 to 1000 nM incubated for 24 hrs; format: functional, cell-based; settings: dose 1-1000 nM
NCI-H1975 [16] = assay: Effect on cell morphology in human NCI-H1975 cells assessed as cell shrinkage at 1 to 1000 nM incubated for 24 hrs; format: functional, cell-based; settings: dose 1-1000 nM
NCI-H1975 [17] = assay: Effect on cell morphology in human NCI-H1975 cells assessed as cell aggregation at 1 to 1000 nM incubated for 24 hrs; format: functional, cell-based; settings: dose 1-1000 nM
NCI-H1975 [18] = assay: Effect on cell morphology in human NCI-H1975 cells assessed as disappearance of cell morphology at 1 to 1000 nM incubated for 24 hrs; format: functional, cell-based; settings: dose 1-1000 nM
NCI-H2228 [19] = assay: Effect on cell morphology in human NCI-H2228 cells assessed as increase of cell fragments at 1 to 1000 nM incubated for 24 hrs; format: functional, cell-based; settings: dose 1-1000 nM
NCI-H2228 [20] = assay: Effect on cell morphology in human NCI-H2228 cells assessed as increase of cell shrinkage at 1 to 1000 nM incubated for 24 hrs; format: functional, cell-based; settings: dose 1-1000 nM
NCI-H2228 [21] = assay: Effect on cell morphology in human NCI-H2228 cells assessed as increase of cell opacity at 1 to 1000 nM incubated for 24 hrs; format: functional, cell-based; settings: dose 1-1000 nM
NCI-H2228 [22] = assay: Effect on cell morphology in human NCI-H2228 cells assessed as loss of cell morphology at 1 to 1000 nM incubated for 24 hrs; format: functional, cell-based; settings: dose 1-1000 nM
NCI-H2228 [23] = assay: Effect on cell morphology in human NCI-H2228 cells assessed as loss of large number of floating cells at 1 to 1000 nM incubated for 24 hrs; format: functional, cell-based; settings: dose 1-1000 nM
[24] = Selectivity ratio, ratio of IC50 for human NCI-H1975 cells expressing EGFR T790M/ L858R double mutant to IC50 for human EA.hy 926 cells by MTT assay
[25] = Selectivity ratio, ratio of IC50 for human NCI-H1975 cells expressing EGFR T790M/ L858R double mutant to IC50 for human HK-2 cells by MTT assay
EA.hy 926 = assay: Effect on cell morphology in human EA.hy 926 cells at 1 uM incubated for 24 hrs by inverted microscopic analysis; format: functional, cell-based
NCI-H1975 [26] = assay: Induction of apoptosis in human NCI-H1975 cells expressing EGFR T790M/ L858R double mutant assessed as increase in DNA breakage measured after 24 hrs by Hoechst 33342 staining based fluorescence microscopic analysis; format: functional, cell-based; settings: dose 5-25 nM
NCI-H2228 [27] = assay: Induction of apoptosis in human NCI-H2228 cells expressing ALK assessed as increase in DNA breakage measured after 24 hrs by Hoechst 33342 staining based fluorescence microscopic analysis; format: functional, cell-based; settings: dose 5-25 nM
NCI-H1975 [28] = assay: Inhibition of human NCI-H1975 cell cloning incubated for 24 hrs by inverted microscopic analysis; format: functional, cell-based; settings: dose 5-25 nM
NCI-H2228 [29] = assay: Inhibition of human NCI-H2228 cell cloning incubated for 24 hrs by inverted microscopic analysis; format: functional, cell-based; settings: dose 1-20 nM
NCI-H1975 [30] = assay: Antimigratory activity against human NCI-H1975 cells assessed as decrease in healing rate upto 10 nM measured upto 36 hrs by scratch-wound healing assay; format: functional, cell-based
NCI-H1975 [31] = assay: Antimigratory activity against human NCI-H1975 cells assessed as reduction in cell migration incubated for 24 hrs by crystal violet staining microscopy based transwell migration assay; format: functional; settings: dose 10-20 nM

Compound: COCCOc1cc2ncnc(N(C)c3ccccc3S(=O)(=O)N(C)C)c2cc1OCCOC
- IC50 (NCI-H1975 [1]): > 10000 nM
- IC50 (NCI-H2228 [2]): > 10000 nM

Compound: C=CC(=O)Nc1cc(Nc2ncc(Cl)c(Nc3ccccc3S(=O)(=O)N(C)C3CC3)n2)c(OC)cc1N(C)CCN(C)C
- IC50 (NCI-H1975 [1]): 100 nM
- IC50 (NCI-H2228 [2]): 24.5 nM

Compound: C=CC(=O)Nc1cc(Nc2ncc(Cl)c(Nc3ccccc3S(=O)(=O)N(C)C)n2)c(OC)cc1N(C)CCN(C)C
- IC50 (NCI-H1975 [1]): 12.5 nM
- IC50 (NCI-H2228 [2]): 18 nM

Compound: C=CC(=O)Nc1cc(Nc2nccc(-c3cn(C)c4ccccc34)n2)c(OC)cc1N(C)CCN(C)C [OSIMERTINIB]
- IC50 (A549): 1560 nM
- IC50 [3]: 1160 nM
- IC50 [4]: 2400 nM
- Activity (HK-2): inactive

Compound: CNC(=O)c1ccccc1Nc1ncnc2cc(OCCOC)c(OCCOC)cc12
- IC50 (NCI-H1975 [1]): > 10000 nM
- IC50 (NCI-H2228 [2]): > 10000 nM

Compound: Cc1cc(Nc2ncc(Cl)c(Nc3ccccc3S(=O)(=O)C(C)C)n2)c(OC(C)C)cc1C1CCNCC1 [CERITINIB]
- IC50 [3]: 1010 nM
- IC50 [4]: 2510 nM
- Ratio IC50 [5]: 228.36
- Ratio IC50 [6]: 77.69

Compound: COc1cc(N(C)CCN(C)C)c(NC(=O)CCl)cc1Nc1ncc(Cl)c(Nc2ccccc2S(=O)(=O)N(C)C)n1
- IC50 (NCI-H1975 [1]): 1030 nM
- IC50 (NCI-H2228 [2]): 104 nM

Compound: CCN(CC)S(=O)(=O)c1ccccc1Nc1ncnc2cc(OCCOC)c(OCCOC)cc12
- IC50 (NCI-H1975 [1]): > 10000 nM
- IC50 (NCI-H2228 [2]): > 10000 nM

Compound: C=CC(=O)Nc1cc(Nc2ncc(Cl)c(Nc3ccccc3S(=O)(=O)NC3CC3)n2)c(OC)cc1N(C)CCN(C)C
- IC50 (NCI-H1975 [1]): 21.5 nM
- IC50 (NCI-H2228 [2]): 11 nM
- IC50 [7]: 3.31 nM
- Ratio IC50 [8]: 77.25
- IC50 [9]: 1.08 nM
- IC50 [10]: 23.2 nM
- IC50 [11]: 0.72 nM
- Ratio IC50 (Homo sapiens [12]): 21.5
- Ratio IC50 (Homo sapiens [13]): 32.3
- IC50 (A549): 1540 nM
- IC50 (PC-9): 20 nM
- Ratio IC50 [14]: 71.86
- Activity (NCI-H1975 [15]): Active
- Activity (NCI-H1975 [16]): Active
- Activity (NCI-H1975 [17]): Active
- Activity (NCI-H1975 [18]): Active
- Activity (NCI-H2228 [19]): Active
- Activity (NCI-H2228 [20]): Active
- Activity (NCI-H2228 [21]): Active
- Activity (NCI-H2228 [22]): Active
- Activity (NCI-H2228 [23]): Active
- IC50 [3]: 1610 nM
- IC50 [4]: 3300 nM
- Ratio IC50 [24]: 74.83
- Ratio IC50 [5]: 146.27
- Ratio IC50 [25]: 157.28
- Ratio IC50 [6]: 300.27
- Activity (EA.hy 926): Active
- Activity (HK-2): Active
- Activity (NCI-H1975 [26]): Dose-Dependent Effect
- Activity (NCI-H2228 [27]): Dose-Dependent Effect
- inhibition (NCI-H1975 [28]): Active
- inhibition (NCI-H2228 [29]): Active
- Activity (NCI-H1975 [30]): Active
- Activity (NCI-H1975 [31]): Dose-Dependent Effect

Compound: Cc1cc(N(C)CCN(C)C)ccc1Nc1ncc(Cl)c(Nc2ccccc2S(=O)(=O)N(C)C)n1
- IC50 (NCI-H1975 [1]): 170 nM
- IC50 (NCI-H2228 [2]): 55.5 nM

Compound: COCCOc1cc2ncnc(Nc3ccccc3S(=O)(=O)N3CCCC3)c2cc1OCCOC
- IC50 (NCI-H1975 [1]): > 10000 nM
- IC50 (NCI-H2228 [2]): > 10000 nM

Compound: C=CC(=O)Nc1cc(Nc2ncc(F)c(Nc3ccccc3S(=O)(=O)N(C)C)n2)c(OC)cc1N(C)CCN(C)C
- IC50 (NCI-H1975 [1]): 67 nM
- IC50 (NCI-H2228 [2]): 45 nM

Compound: CN(C)CCN(C)c1ccc(Nc2ncc(Cl)c(Nc3ccccc3S(=O)(=O)N(C)C)n2)cc1
- IC50 (NCI-H1975 [1]): 61 nM
- IC50 (NCI-H2228 [2]): 108 nM

Compound: COCCOc1cc2ncnc(Nc3ccccc3S(=O)(=O)NC3CC3)c2cc1OCCOC
- IC50 (NCI-H1975 [1]): > 10000 nM
- IC50 (NCI-H2228 [2]): > 10000 nM

Compound: C=CC(=O)Nc1cc(Nc2ncc(Cl)c(Nc3ccccc3S(=O)(=O)N3CCCC3)n2)c(OC)cc1N(C)CCN(C)C
- IC50 (NCI-H1975 [1]): 13.6 nM
- IC50 (NCI-H2228 [2]): 14 nM

Compound: CNS(=O)(=O)c1ccccc1Nc1ncnc2cc(OCCOC)c(OCCOC)cc12
- IC50 (NCI-H1975 [1]): > 10000 nM
- IC50 (NCI-H2228 [2]): > 10000 nM

Compound: COCCOc1cc2ncnc(Nc3ccccc3S(=O)(=O)N(C)C)c2cc1OCCOC
- IC50 (NCI-H1975 [1]): > 10000 nM
- IC50 (NCI-H2228 [2]): > 10000 nM

Compound: C=CC(=O)Nc1cc(Nc2ncc(F)c(Nc3ccccc3S(=O)(=O)N3CCCC3)n2)c(OC)cc1N(C)CCN(C)C
- IC50 (NCI-H1975 [1]): 81 nM
- IC50 (NCI-H2228 [2]): 19 nM
